Our source for the IC50 values is patent US10774082B2, “Quinazoline compound” (Astellas Pharma Inc., priority 2017, dated 2020).

One assay concerns NCI-H1373 cells. Kind of assay: Anchorage-independent cell proliferation inhibitory action, NCI-H1373 spheroid three-dimensional culture. It counts as cell-based, Human. The note with it: Homo sapiens, NCI-H1373, 144 h, read-out: IC50 (anchorage-independent cell proliferation inhibition). As to the method: Evaluation of Anchorage-Independent Cell Proliferation Inhibitory Action with Respect to Human KRAS G12C Mutation Positive Non-Small Cell Lung Cancer Strain NCI-H1373
An anchorage-independent cell proliferation inhibitory action by the test compound was evaluated by a spheroid three-dimensional culture.
NCI-H1373 cells were seeded in cell low adsorption U bottom 384 well plates (Prime Surface: Sumitomo Bakelite Co., Ltd.) at 36 μL/well each so as to be 5×10^2 cell per well. The cell culture was performed under the same conditions as Test example 2.
The next day, the test compounds (six points in a range of final concentration 1,000 nM to 0.3 nM) and DMSO which is a solvent of the test compound as a negative control were diluted 100-fold with fresh medium, 4 μL each was added to each well. After culturing at 37° C. in the presence of 5% CO2 for six days, 20 μL of CellTiter Glo or to CellTiter Glo 2.0 (Promega Corporation) was added to each well. After stirring for one hour at room temperature using a plate mixer (FINEPCR), an emission signal was measured with ARVO X3 (PerkinElmer Co., Ltd.).
When a signal value in a DMSO treatment was set as 0% inhibition, and a signal value in cell-free medium only was set as 100% inhibition, a value of 50% inhibition (IC50) was calculated through Sigmoid-Emax model nonlinear regression analysis.

In assay [1] the target is T1, KRAS G12C/SOS/c-Raf complex (Homo sapiens, UniProt P01116, G12C).
T1 construct: Biotinylated AviTag-KRAS G12C (amino acid region 1-185, GDP)
Kind of assay: KRAS G12C/SOS/c-Raf complex formation inhibitory action (TR-FRET). It counts as biochemical. The note with it: one hour at room temperature, read-out: IC50 (KRAS G12C/SOS/c-Raf complex formation inhibition). As to the method: Evaluation of KRAS G12C/SOS/c-Raf Complex Formation Inhibitory Action
Human Recombinant KRAS G12C, SOS, and c-Raf protein were used, and with respect to the complex formation of these proteins, an inhibitory action of the test compound was examined through a time-resolved fluorescence resonance energy transfer (TR-FRET) method.
Biotinylated AviTag-KRAS G12C (amino acid region 1-185, GDP) (2.5 μL; 400 nM) dissolved in assay buffer (50 mM HEPES, 150 mM NaCl, 5 mM MgCl2, 0.05% Tween 20, pH 7.4) and test compound were added in a volume of 2.5 μL from 4,000 nM to 4 nM were added to 384 well plate (Corning Inc). Son of Sevenless (SOS) (amino acid region 564-1049, 2.5 μL; 1.3 μM) and c-Raf (amino acid region 51-131) GST containing GTP (Sigma-Aldrich Co. LLC) (2.5 μL; 130 nM and 4 μM of each) were added to the above mixture, and the resultant was left to stand for one hour at room temperature. Thereafter, a mixed solution (10 μL) of LANCE Ulight-anti-GST (120 nM, PerkinElmer. Co., Ltd) and LANCE Eu-W1024 labeled Streptoavidin (100 ng/mL, PerkinElmer. Co., Ltd) was added, and a fluorescence intensity on the condition of wavelength of 620 nm and 665 nm was measured by using EnVision 2103 Multilabel Reader (PerkinElmer Co., Ltd.) under the condition of excitation wavelength of 337 nm. […] In Tables, Ex represents Example numbers described later. In addition, in Tables, Compound C represents a test compound of Example I-59 disclosed in Pamphlet of International Publication No. WO 2016/164675, and the structures of Reference Example 1 and Reference Example 2 are indicated in Table 168 described below (the same shall apply hereinafter).

Assay [2] relates to ERK phosphorylation (Thr 202/Tyr 204) in NCI-H1373 cells. Kind of assay: ERK phosphorylation inhibitory action in NCI-H1373 (Cell ELISA). The conditions noted are these: Homo sapiens, NCI-H1373, 2 h, read-out: IC50 (ERK phosphorylation inhibition). The class given is cell-based, Human. As to the method:
Evaluation of ERK Phosphorylation Inhibitory Action with Respect to Human KRAS G12C Mutation Positive Non-Small Cell Lung Cancer Strain NCI-H1373
The ERK phosphorylation inhibitory action by the test compound was evaluated by measuring phosphorylation of 202th threonine (Thr 202) and 204th tyrosine (Tyr 204) of ERK on the downstream of the KRAS signal by Cell ELISA.
NCI-H1373 cells (ATCC, CRL-5866) were seeded in 384 well plates (Greiner bio-one) at 36 μL/well each so as to be 2×10^4 cell per well. Cell culture was performed under the conditions of temperature of 37° C. in the presence of 5% CO2 by using RPMI 1640 medium (Sigma-Aldrich Co. LLC) containing 10% fetal bovine serum (GE Life Sciences).
The next day, the test compounds (six points in a range of final concentration 1,000 nM to 0.3 nM), final concentration 1 μM of Trametinib (GlaxoSmithKline Inc.; MEK inhibitor) as a positive control, and DMSO which is a solvent of the test compound as a negative control were diluted 100-fold with fresh medium, 4 μL each was added to each well, and then cultured for 2 hours. Immediately after culturing, 30 μL of 30% glyoxal solution (Wako: 40% glyoxal diluted with Phosphate Buffered Saline (PBS; Wako)) was added to each well, and the cells were left to stand at room temperature for one hour to be fixed. Thereafter, the supernatant was removed by centrifuging the plate (110×g for 7 seconds, unless otherwise stated below under the same conditions), and 20 μL of PBS containing 0.1% Triton X-100 (Amersham Biosciences Corp.) was added to each well. After being left to stand at room temperature for 10 minutes, the supernatant was removed by centrifugation, and the same operation was repeated. Next, 20 μL of PBS containing 0.5% SDS (Invitrogen) was added to each well, and the mixture was left to stand at room temperature for 30 minutes, and then centrifuged to remove the supernatant. Subsequently, 20 μL of a blocking solution (ODYSSEY Blocking Buffer; LI-COR Biosciences) was added to each well, and left to stand at room temperature for one hour. The supernatant was removed by centrifugation, and 10 μL of a blocking solution prepared by diluting ERK (Thr 202/Tyr 204) of a phosphorylation antibody (Cell Signaling Technology, Inc.) as a primary antibody to be ½, 500 amount with respect to a stock solution was added to each well and was left to stand at 4° C. for overnight.
The next day, a reaction liquid is removed by centrifuging the plate, 20 μL of 0.05% Tween-20-containing PBS (Thermo Scientific; 20×PBS Tween-20 diluted 20-fold with ion exchanged water) was added to each well, and each well was washed by removing the supernatant by centrifugation. Washing was performed three times in total. After washing, 10 μL of a blocking solution prepared by diluting IRDye 800CW Goat anti-Rabbit IgG (LI-COR Biosciences) as a secondary antibody to be 1/1,000 amount with respect to a stock solution was added to each well and was left to stand at room temperature for one hour. The reaction liquid was removed by centrifuging the plate, and each well was washed three times with 0.05% Tween-20-containing PBS in the same manner as after primary antibody reaction. The centrifugation after the third wash was 171×g for 17 seconds. After removal of the cleaning solution, the plate was left to air dry at room temperature for three hours or more and the fluorescent signal at 800 nm was measured by Aerius (LI-COR Biosciences).
When a signal value at the time of adding DMSO was set as 0% inhibition, and a signal value at the time of adding 1 μM of Trametinib was set as 100% inhibition, a value of 50% inhibition (IC50) was calculated through Sigmoid-Emax model nonlinear regression analysis.
(ELISA stands for enzyme-linked immunosorbent assay.)

The mark [3] stands for this setting: NCI-H1373 spheroid, six days, CellTiter Glo.
The mark [4] stands for this setting: NCI-H1373 cells, cultured for 2 hours, 100% = 1 μM Trametinib.

Molecules are shown by their SMILES. pIC50: −log10 of the molar value. Where two headings read alike, the source gives them in different places.

T1 sequence (P01116 1-185 isoform P01116-2 G12C, one chain of several): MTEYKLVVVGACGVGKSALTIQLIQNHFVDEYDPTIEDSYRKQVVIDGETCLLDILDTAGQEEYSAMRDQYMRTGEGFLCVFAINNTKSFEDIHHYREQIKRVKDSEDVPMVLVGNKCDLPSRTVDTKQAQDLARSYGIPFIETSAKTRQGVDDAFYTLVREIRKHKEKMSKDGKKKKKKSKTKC

Take `C=CC(=O)N1CC2(CCN(c3nc(OC4CCN(CC)CC4)nc4c(OCC(F)F)c(-c5c(C)ccc6[nH]ncc56)c(C5CC5)cc34)CC2)C1` [Example 22]: the pIC50 in the assay on NCI-H1373 cells (setting [3]) was 7.82; in assay [1], 7.41; in assay [2] (setting [4]) it was 8.34.
Consider `C=CC(=O)N1CC2(CCN(c3nc(OC[C@@H]4CCCN4C)nc4c(OCC)c(-c5c(C)ccc6[nH]ncc56)c(C5CC5)cc34)CC2)C1` [Example 23], for which the values for the pIC50 (in the assay with NCI-H1373 cells (setting [3]); in assay [1]; in assay [2] (setting [4])) were 8.23, 7.41 and 8.31, respectively.
On the same counts, the results for `C=CC(=O)N1CC2(CCN(c3nc(OC4CCN(CCCOC)CC4)nc4c(OCC(F)(F)F)c(-c5c(C)ccc6[nH]ncc56)c(C=C)cc34)CC2)C1` [Example 27] are 8.19, 7.40 and 8.48.
In the same order, the values of `C=CC(=O)N1CC2(CCN(c3nc(N4CCC(N(C)C)CC4)nc4c(OCC(F)(F)F)c(-c5c(C)ccc6[nH]ncc56)c(C=C)cc34)CC2)C1` [Example 42] are 7.89, 7.36 and 8.36.
For the molecule `C=CC(=O)N1CC2(CCN(c3nc(OC4CCN(C5CC5)CC4)nc4c(OCC)c(-c5c(C)ccc6[nH]ncc56)c(C5CC5)cc34)CC2)C1` [Example 43], the results for the pIC50 (with NCI-H1373 cells; in assay [1]; in assay [2]) were 8.22, 7.30 and 8.30, respectively.
Turning to `C=CC(=O)N1CC2(CCN(c3nc(OC4CCN(CC5CCOCC5)CC4)nc4c(OCC(F)(F)F)c(-c5c(C)ccc6[nH]ncc56)c(C=C)cc34)CC2)C1` [Example 44], the pIC50 was 8.12 in the assay with NCI-H1373 cells, 7.39 in assay [1] and 8.29 in assay [2].
On the same counts, the results for `C=CC(=O)N1CC2(CCN(c3nc(OC4CCN(CCN5CCOCC5)CC4)nc4c(OCC(F)(F)F)c(-c5c(C)ccc6[nH]ncc56)c(C5CC5)cc34)CC2)C1` [Example 45] are 8.14, 7.42 and 8.28.
Regarding `C=CC(=O)N1CC2(CCN(c3nc(OC4CCN(CC5CC5)CC4)nc4c(OCC(F)(F)F)c(-c5c(C)ccc6[nH]ncc56)c(C=C)cc34)CC2)C1` [Example 46], the pIC50 with NCI-H1373 cells (setting [3]) was 8.09; in assay [1], 7.32; in assay [2] (setting [4]), 8.26.
With `C=CC(=O)N1CC2(CCN(c3nc(OC4CCN(CCOC(C)C)CC4)nc4c(OCC(F)(F)F)c(-c5c(C)ccc6[nH]ncc56)c(C=C)cc34)CC2)C1` [Example 47], the pIC50 was 7.77 in the assay on NCI-H1373 cells (setting [3]), 7.37 in assay [1] and 8.25 in assay [2] (setting [4]).
In the same order, the values of `C=CC(=O)N1CC2(CCN(c3nc(OC4CCN(C)CC4C)nc4c(OCC(F)(F)F)c(-c5c(C)ccc6[nH]ncc56)c(C=C)cc34)CC2)C1` (stereo not drawn) [Example 48] are 7.82, 7.27 and 8.23.
With `C=CC(=O)N1CC2(CCN(c3nc(OC4CCN(CCOC)CC4)nc4c(OCC(F)(F)F)c(-c5c(C=C)ccc6[nH]ncc56)c(C=C)cc34)CC2)C1` [Example 49], the results for the pIC50 (in the assay on NCI-H1373 cells (setting [3]); in assay [1]; in assay [2] (setting [4])) were 8.34, 7.39 and 8.54, respectively.
On the same counts, the results for `C=CC(=O)N1CC2(CCN(c3nc(OC4CCN(CCOC)CC4)nc4c(OC(F)F)c(-c5c(C)ccc6[nH]ncc56)c(C=C)cc34)CC2)C1` [Example 53] are 8.01, 7.43 and 8.17.
On the same counts, the results for `C=CC(=O)N1CC2(CCN(c3nc(OC4CCN(CCC#N)CC4)nc4c(OCC)c(-c5c(C)ccc6[nH]ncc56)c(C5CC5)cc34)CC2)C1` [Example 54] are 8.17, 7.22 and 8.14.
In the same order, the values of `C=CC(=O)N1CC2(CCN(c3nc(OC4CCN(C(CF)CF)CC4)nc4c(OCC(F)(F)F)c(-c5c(C)ccc6[nH]ncc56)c(C=C)cc34)CC2)C1` [Example 55] are 7.37, 7.08 and 8.13.
With `C=CC(=O)N1CC2(CCN(c3nc(OC4CCN(C)CC4)nc4c(OCc5cccc(OC)c5)c(-c5c(C)ccc6[nH]ncc56)c(C=C)cc34)CC2)C1` [Example 57], the pIC50 is 7.41 in the assay with NCI-H1373 cells (setting [3]), 7.28 in assay [1] and 8.09 in assay [2] (setting [4]).
On the same counts, the results for `C=CC(=O)N1CC2(CCN(c3nc(OC4CCN(C)CC4)nc4c(OCc5ccc(C)cc5)c(-c5c(C)ccc6[nH]ncc56)c(C=C)cc34)CC2)C1` [Example 58] are 7.77, 7.24 and 8.08.
As to `C=CC(=O)N1CC2(CCN(c3nc(N4CCN(CCOC)CC4)nc4c(OCC(F)(F)F)c(-c5c(C)ccc6[nH]ncc56)c(C=C)cc34)CC2)C1` [Example 59], the pIC50 was 7.59 with NCI-H1373 cells (setting [3]), 7.20 in assay [1] and 8.08 in assay [2] (setting [4]).
